One assay relates to DLD-1 cells. Description: Cell proliferation PAD assay, DLD-1. The assay is classed as cell-based. As to conditions: Homo sapiens, DLD1 cells, 6pt, 48 hours. The source says: (§1) Table 3 illustrates the inhibitory activity of the compounds of the invention determined by the PAD assay described above in a number of cell types. Apoptosis was not
(§2) Cell lines used are available from American Type Culture Collection (ATCC), for example, cell cultures containing A549 (ATCC# CCL-185), HeLa (ATCC# CCL-2), HCT116 ATTC# CCL-247), and H1299 (ATCC# CRL-5803) cells were maintained in T175 flasks following the ATCC recommended media and handling procedures. […] A 20,000 cells/ml solution was made for plating. Cells were plated in black Packard 96 well plates by placing 100 μl per well (2,000 cells per well). […] The definitions of the cell types used are as follows: A549 is lung carcinoma; HI 299 is non-small cell lung carcinoma; HI 155 is non-small cell lung carcinoma; AsPC-1 is pancreatic adenocarcinoma; Caov-3 is ovarian adenocarcinoma; COLO 205 is colorectal adenocarcinoma; DLD-1 colorectal adenocarcinoma; HCT116 is colorectal carcinoma; DU 145 is prostate carcinoma; ES-2 is ovarian clear cell carcinoma; H460 is large cell lung carcinoma; HELA is cervical adenocarcinoma; MIA PaCa-2 is pancreatice carcinoma; OVCAR-3 is ovarian adenocarcinoma; OVCAR8 is ovarian carcinoma; PC3 is prostate adenocarcinoma; SK-OV-3 is ovarian adenocarcinoma; SU86.86 is pancreatic carcinoma; TOV-21G is avarian clear cell carcinoma; U2OS is bone osteosarcoma; is ASPC-I is pancreatic adenocarcinoma; BXPC-3 is pabcreatic adenocarcinoma; HL60 is promyeloblast promyelocytic leukemia; K562 is bone marrow chronic myelogenous leukemia; L1210 is mouse lymphocytic leukemia; MOLT3 is T lymphoblast acute lymphoblastic leukemia; MOLT4 is T lymphoblast acute lymphoblastic leukemia; SW620 is colorectal adenocarcinoma; THP-1 is monocyte acute monocytic leukemia; U937 is histiocytic lymphoma; and UACC-257 is melanoma.
(§3) Compounds and additional media were added 24 hours after cell plating. A compound master plate was created with concentrations 500 times greater than the final concentration added to the cells. All compound testing was done in duplicate using 6.3 fold dilutions starting with 10 mM. All outside wells (and 4 internal wells) were DMSO controls. Taxol and at least one additional control were run on all plates. Three microliters of the compound master plate were added to deep well blocks containing 750 μl of RPMI media. One hundred microliters were transferred from the compound/media deep well blocks to the plated cells resulting in a 500 fold dilution of the compounds. Cells were grown at 37° C., 5% CO2 for 48 hours.
(§4) Cells to be analyzed by photography were fixed and stained. One hundred microliters of media were removed and 100 μl of 9.3% formamide was added to each well. Plates were left on the benchtop for 45 minutes. A staining solution containing 1.55 μl of 1 mg/ml DAPI added to 18.75 ml PBS was warmed for 15 minutes at 37° C. The cells were aspirated prior to washing with 100 μl of PBS. Seventy microliters of PBS were aspirated and 170 μl of the DAPI solution were added to each well of fixed cells. Plates were left at room temperature for one hour then aspirated and washed twice with 100 μl of PBS. The stained cells were left at 4° C. for a minimum of 16 hours before photographic analysis with Array Scan II (Cellomics). Analysis of the photographic images to determine numbers of live cells (proliferation), apoptotic cells and dead cells, were according to the methods described in U.S. Utility patent application Ser. No. 10/652,440, which incorporated herein in its entirety.

Another assay concerns HELA cells. Put plainly: Cell proliferation PAD assay, HeLa. The assay is classed as cell-based. Conditions: Homo sapiens, 6pt, 48 hours.
Source text: as §1, §2, §3, §4

For the next assay, the system named is U2OS cells. Description: Cell proliferation PAD assay, U2OS. The assay is classed as cell-based. As to conditions: Homo sapiens, 6pt, 48 hours.
Source text: as §1, §2, §3, §4

The target of another assay is T1, ROC1/CUL1 (Homo sapiens, UniProt P62877+Q13616).
T1 construct: made in house
T1 sequence (P62877 whole entry): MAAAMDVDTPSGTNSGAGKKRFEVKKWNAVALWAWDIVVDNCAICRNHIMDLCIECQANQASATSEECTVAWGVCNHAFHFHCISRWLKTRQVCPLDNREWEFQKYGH
T1 sequence (Q13616 whole entry): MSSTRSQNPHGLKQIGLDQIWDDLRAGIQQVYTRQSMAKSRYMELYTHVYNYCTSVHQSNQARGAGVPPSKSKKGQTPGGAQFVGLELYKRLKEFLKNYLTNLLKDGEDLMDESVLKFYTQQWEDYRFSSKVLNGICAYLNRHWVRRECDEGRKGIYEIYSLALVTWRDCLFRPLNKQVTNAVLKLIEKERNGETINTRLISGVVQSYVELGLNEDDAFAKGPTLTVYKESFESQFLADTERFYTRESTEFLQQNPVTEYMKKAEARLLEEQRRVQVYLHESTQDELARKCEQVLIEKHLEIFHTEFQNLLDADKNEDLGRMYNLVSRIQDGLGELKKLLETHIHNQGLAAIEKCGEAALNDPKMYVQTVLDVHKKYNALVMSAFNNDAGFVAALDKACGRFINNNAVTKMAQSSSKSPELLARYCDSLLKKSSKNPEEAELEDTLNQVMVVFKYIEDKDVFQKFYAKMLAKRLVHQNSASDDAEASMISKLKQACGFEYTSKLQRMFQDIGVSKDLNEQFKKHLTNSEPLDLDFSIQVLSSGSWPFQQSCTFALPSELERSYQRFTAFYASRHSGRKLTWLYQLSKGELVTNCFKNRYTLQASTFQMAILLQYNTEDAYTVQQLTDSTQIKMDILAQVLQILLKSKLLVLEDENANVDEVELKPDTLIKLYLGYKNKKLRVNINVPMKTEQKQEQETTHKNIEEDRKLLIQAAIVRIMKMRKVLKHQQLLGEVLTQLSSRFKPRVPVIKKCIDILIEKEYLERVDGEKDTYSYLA
Put plainly: ROC1/CUL1 ubiquitin ligase assay (SCF assay). The assay is classed as biochemical. In short, it runs like this:
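His-ROC1/CUL1 (100 ng/well) with E1 (5 ng/well), UbcH5c E2 (25 nl/well) and Flag-ubiquitin (100 ng) on nickel-coated plates; the reaction solution held Tris pH 7.5, MgCl2, DTT and 2.5 mM ATP. Compounds were added and the reaction ran 1 h at RT. Bound ubiquitin was read by anti-Flag/HRP luminescence, giving IC50 across compound concentrations.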

`O=[N+]([O-])c1ccc(SCCO)c2nonc12` [compound 150, 2-[(7-nitro-2,1,3-benzoxadiazol-4-yl)thio]ethanol]: the IC50 in the assay with DLD-1 cells, in the assay on HELA cells and in the assay with U2OS cells was less than 1 µM throughout.

Regarding `COC(=O)c1ccc(NS(=O)(=O)c2ccc(F)c3nonc23)cc1` [compound 167, methyl 4-{[(7-fluoro-2,1,3-benzoxadiazol-4-yl)sulfonyl]amino}benzoate], the IC50 (usually the midpoint of a concentration-inhibition curve) in the assay with U2OS cells was less than 1 µM.

With `O=S(=O)(Oc1ccc(N2CCN(S(=O)(=O)c3ccc(Cl)c4nonc34)CC2)cc1)c1ccc(Cl)c2nonc12` [compound 171, 4-{4-[(7-chloro-2,1,3-benzoxadiazol-4-yl)sulfonyl]piperazin-1-yl}phenyl 7-chloro-2,1,3-benzoxadiazole-4-sulfonate], in the assay on U2OS cells, the IC50 is less than 1 µM.

On to `COC(=O)c1ccc(NS(=O)(=O)c2c(Cl)ccc3nonc23)cc1` [compound 178, methyl 4-{[(5-chloro-2,1,3-benzoxadiazol-4-yl)sulfonyl]amino}benzoate], for which the IC50 in the assay on DLD-1 cells, in the assay on HELA cells and in the assay on U2OS cells was less than 1 µM in each case.

For `O=S(=O)(c1c(Cl)ccc2nonc12)N1CCN(c2ncc(C(F)(F)F)cc2Cl)CC1` [compound 179, 5-chloro-4-({4-[3-chloro-5-(trifluoromethyl)pyridin-2-yl]piperazin-1-yl}sulfonyl)-2,1,3-benzoxadiazole], the IC50 in the assay on DLD-1 cells was 1 to 20 µM; in the assay with HELA cells, 1 to 20 µM; with U2OS cells, less than 1 µM.

On to `O=c1[nH]c2ccccc2n1C1CCN(S(=O)(=O)c2ccc(Cl)c3nonc23)CC1` [compound 188, 1-{1-[(7-chloro-2,1,3-benzoxadiazol-4-yl)sulfonyl]piperidin-4-yl}-1,3-dihydro-2H-benzimidazol-2-one], for which the concentration for half-maximal inhibition (IC50) in the assay with U2OS cells was less than 1 µM.

For `CC(=O)N1CCN(S(=O)(=O)c2c(Cl)ccc3nonc23)CC1` [compound 201, 4-[(4-acetylpiperazin-1-yl)sulfonyl]-5-chloro-2,1,3-benzoxadiazole], in the assay with U2OS cells, the IC50 is less than 1 µM.

Consider `Cc1cccc(N2CCN(S(=O)(=O)c3c(Cl)ccc4nonc34)CC2)n1` [compound 202, 5-chloro-4-{[4-(6-methylpyridin-2-yl)piperazin-1-yl]sulfonyl}-2,1,3-benzoxadiazole], for which the results for the IC50 with DLD-1 cells, in the assay on HELA cells and in the assay with U2OS cells were less than 1 µM, 1 to 20 µM and less than 1 µM, respectively.

With `O=S(=O)(Nc1ccc2cn[nH]c2c1)c1ccc(Cl)c2nonc12` [compound 220, 7-chloro-N-1 H-indazol-6-yl-2,1,3-benzoxadiazole-4-sulfonamide], the half-maximal inhibitory concentration (IC50) with DLD-1 cells, with HELA cells and in the assay with U2OS cells was 1 to 20 µM each time.

Regarding `CC1(C)CCN(S(=O)(=O)c2c(Cl)ccc3nonc23)CC1` [compound 245, 5-chloro-4-[(4,4-dimethylpiperidin-1-yl)sulfonyl]-2,1,3-benzoxadiazole], the IC50 on ROC1/CUL1 and in the assay with HELA cells was no less than 20 µM each time.

Consider `Cc1cc(C)cc(-c2ccc([N+](=O)[O-])c3nonc23)c1` [compound 286, 4-(3,5-Dimethylphenyl)-7-nitro-2,1,3-benzoxadiazole], for which the IC50 in the assay on DLD-1 cells is 1 to 20 µM; in the assay with HELA cells it was 1 to 20 µM; in the assay with U2OS cells, less than 1 µM.

(Values after US20050282818A1, “Ubiquitin ligase inhibitors” (Rigel Pharmaceuticals, Inc., priority 2004, published 2005).)
